For series [1] the following is noted: cited from earlier work.
In series [2] the target is T1, S102G/R166S AP (Escherichia coli, UniProt P00634, R188S/S124G). The following applies: Table 2. From the text: (§1) The following buffers were used over the indicated pH ranges: NaAcetate (4.5–5.5), NaMES (5.5), NaMaleate (6.0–6.5), Tris•HCl (7.0–7.5), NaMOPS (7.0–8.0), NaCHES (8.5–9.0), and NaCAPS (10–10.5).
(§2) The retentate is expected to contain both free and bound ^32Pi. […] Scintillation counting of both the filtrate and retentate was used to measure the concentrations of free and bound ^32Pi at the various AP concentrations, and the fraction ^32Pi bound dependence on the AP concentration was used to determine dissociation constants using a modified binding equation, f bound = (C)×([AP]/([AP]+K [drawing 148] ))+(1–C), where C allows for background levels of apparent binding in the absence of protein.
(§3) To measure the uptake of ^32Pi by the AP sample, the fraction of ^32Pi bound was measured over time starting just after the addition of ^32Pi to the AP samples.

The target of the next series is S102G AP (Escherichia coli, UniProt P00634, S124G). The note with it: for trianion versus dianion differential affinity: S102G AP, Table 2.
Source text: as §2, §3

Another series deals with WT Stp1 (Schizosaccharomyces pombe, UniProt P41893). The note with it: pH 6.0, protein up to 500 µM. From the text: The buffer conditions, pH, and temperature were the same as those for the WT Stp1 kinetic inhibition assays (Figure S14A).
(EPS) Click here for additional data file.

The target in series [3] is T2, WT AP (Escherichia coli, UniProt P00634). The following applies: 0.1–10 µM WT AP, standard buffer.
Source text: as §1, §2, §3

The target in series [4] is AP with mutation of Arg166. The following applies: read-out: Pi binding constant of Arg166 mutants; pH 8.0; cited from earlier work.
Series [5] concerns the target T2, WT AP.
Experimental: (§4) After this first incubation, trace ^32Pi was added and the sample was incubated further to allow ^32Pi binding to complete.
A competition-binding assay at pH 8.0 for WT AP (see Materials and Methods for assay details) under the standard buffer conditions.
For series [6], the target named is T1, S102G/R166S AP. The note with it: fit of Figure 4B, two-state model.
Experimental: as §4
The target of series [7] is T2, WT AP. The following applies: cited from earlier work.
For series [8] the following is noted: ionic strength I = 0.1 for the value 6.9; cited from earlier work.
Another series addresses R166S AP (Escherichia coli, UniProt P00634, R188S). The note with it: fit of Figure 4B, two-state model. The procedure:
The tungstate affinity for R166S AP was determined by inhibition of pNPP hydrolysis as was done previously with WT AP [20], but under the standard buffer conditions used in this work. A range of tungstate concentrations was used from at least 5-fold below and above the inhibition constant at each pH.

Where “and” joins values, the source holds several entries; their conditions need not be identical. Identical values can stand only once. Like-named read-outs stand apart in the source and are kept apart here. A value given as a limit tells only on which side of the number the result lay.

T2 sequence (P00634 22-471): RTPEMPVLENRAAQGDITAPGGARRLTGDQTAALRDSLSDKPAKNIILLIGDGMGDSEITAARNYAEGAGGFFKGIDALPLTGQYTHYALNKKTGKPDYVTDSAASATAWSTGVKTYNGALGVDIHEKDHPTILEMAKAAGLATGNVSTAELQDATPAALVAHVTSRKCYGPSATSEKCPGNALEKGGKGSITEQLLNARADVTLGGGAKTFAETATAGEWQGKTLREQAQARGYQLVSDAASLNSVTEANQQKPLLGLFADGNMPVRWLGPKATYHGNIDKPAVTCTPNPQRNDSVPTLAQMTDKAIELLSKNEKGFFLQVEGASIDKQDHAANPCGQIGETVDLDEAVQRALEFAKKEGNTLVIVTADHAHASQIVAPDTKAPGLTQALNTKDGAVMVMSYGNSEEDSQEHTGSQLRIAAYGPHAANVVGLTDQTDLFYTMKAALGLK
Sequence of S102G AP (P00634 23-471 S124G): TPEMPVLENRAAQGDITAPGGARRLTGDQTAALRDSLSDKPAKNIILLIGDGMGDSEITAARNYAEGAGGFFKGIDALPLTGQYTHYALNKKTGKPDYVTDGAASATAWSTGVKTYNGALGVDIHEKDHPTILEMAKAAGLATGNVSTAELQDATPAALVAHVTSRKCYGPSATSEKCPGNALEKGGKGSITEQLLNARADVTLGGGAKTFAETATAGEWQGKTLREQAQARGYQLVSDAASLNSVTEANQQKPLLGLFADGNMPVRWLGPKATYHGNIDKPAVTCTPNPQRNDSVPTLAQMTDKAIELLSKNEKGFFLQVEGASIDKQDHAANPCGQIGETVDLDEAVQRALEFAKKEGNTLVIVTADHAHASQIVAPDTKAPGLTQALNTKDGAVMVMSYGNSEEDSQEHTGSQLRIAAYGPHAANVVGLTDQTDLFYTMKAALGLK
T1 sequence (P00634 23-471 S124G/R188S): as the sequence (P00634 23-471 S124G) above, with R166S counted along it
Sequence of R166S AP (P00634 23-471 R188S): as the sequence (P00634 23-471 S124G) above, with G102S, R166S counted along it
Sequence of WT Stp1 (P41893 whole entry): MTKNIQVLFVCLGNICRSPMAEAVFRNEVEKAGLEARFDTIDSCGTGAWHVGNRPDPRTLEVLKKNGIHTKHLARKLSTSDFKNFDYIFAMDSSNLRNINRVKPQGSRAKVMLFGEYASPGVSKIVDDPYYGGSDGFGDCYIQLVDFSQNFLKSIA

Take `Nc1ncnc2c1ncn2[C@@H]1O[C@H](COP(=O)(O)OP(=O)(O)OP(=O)(O)O)[C@@H](O)[C@H]1O` [ATP]: the “kuncat, uncatalyzed hydrolysis” value in series [1] (25 °C, 44 of the supplement) is listed as ~ 5×10^-11 M^-1s^-1.
Regarding `Nc1nc2c(ncn2[C@@H]2O[C@H](COP(=O)(O)OP(=O)(O)OP(=O)(O)O)[C@@H](O)[C@H]2O)c(=O)[nH]1` [GTP], in series [1] (25 °C, 44 of the supplement), the “kuncat, uncatalyzed hydrolysis” value is reported as ~ 5×10^-11 M^-1s^-1.
Consider `O=P(O)(O)O` [PO4^3-], for which the “trianion versus dianion differential affinity” value at S102G/R166S AP [2] is reported as 4.3×10^5 fold; at S102G AP it was 10^7 fold; at S102G AP (listed as PO), ~ 10^7 fold. Besides, at S102G AP (WT AP versus S102G AP), the “destabilization of Pi trianion binding by the Ser102 alkoxide” value is ≥ 10^8 fold.
`O=P(O)(O)O` [Pi, inorganic phosphate]: the “Pi binding in the equilibrium-binding assay” value at WT Stp1 is reported as “No significant Pi binding”. Also, the “observed 32Pi uptake rate constant kobs” value on WT AP [3] was at least 0.03 s⁻¹. The Ki in [4] was 460 µM and 640 µM.
As for `COP(=O)(O)O` [methyl phosphate dianion, methyl phosphate], the “kuncat, uncatalyzed hydrolysis” value in [1] (25 °C, 44 of the supplement) was ~ 4×10^-22 M^-1s^-1; in series [1], around 4e-22 M⁻¹ s⁻¹.
With `[O]=[W](=[O])([O-])[O-]` [tungstate], the “pH-independent dissociation constant for tungstate dianion binding” value at WT AP [5] (equilibrium-binding assay via competition with 32Pi, dashed line) is listed as 2.06±0.48 µM; on WT AP [7] (kinetic inhibition, solid line, data from ref 20) it was 0.57±0.11 µM. The Kd at WT AP [5] (read-out: dissociation constant for tungstate binding, pH 8.0, standard buffer) is 0.9 ± 0.2 µM; on WT AP [7] (read-out: dissociation constant for tungstate binding, pH 8.0) it was 1.1 µM. Also, the entries for the “pH-independent dissociation constant for tungstate binding” value on S102G/R166S AP [6] and on R166S AP were 890±90 µM and 170±25 µM, respectively. In addition, in [8], the “solution pKa” value is recorded as around 4.

The values above are taken from publication PMC3699461, “Ground State Destabilization by Anionic Nucleophiles Contributes to the Activity of Phosphoryl Transfer Enzymes” (PLoS Biology, 2013).
